Measured values from patent US5098933A, “Pharmaceutically useful Michael addition products of unsaturated aldehydes and ketones and ascorbic acid” (Theracel Corporation, priority 1990, dated 1992).
Like-named read-outs stand apart in the source and are kept apart here.

Legend:
[1] = test system: T- and B- lymphocyte isolated from mouse spleens; assay: Lymphocyte Blastogenesis Assay; assay type: in vivo; conditions: for activation at 25 mg/kg / activation at 50 mg/kg / activation at 100 mg/kg / activation at 200 mg/kg: Mus musculus, Lymphocyte
Source text: This assay measures the ability of the compound under test to affect DNA synthesis and mitosis of T- and B- lymphocyte isolated from mouse spleens.
Mitogens are substances which stimulate DNA synthesis and mitosis. The mitogens used in these studies were phytohemaglutinin (PHA) which is isolated from the red kidney bean and concanavalin-A (Con-A) which is isolated form the jack bean. Con-A binds to specific receptors (glycoproteins) containing mannosyl or glycosyl moieties and stimulates all murine T-cells to synthesize DNA, divide, and release lymphokines. Con-A in a soluble form allows distinction between T- and B-cells in the mouse, because although both T- and B-cells can bind 106 molecules of Con-A per cell, only T-cells are stimulated when this lectin is presented in a soluble form. PHA stimulates only subpopulations, T-2 cells, of T-cells in the mouse. Also, Con-A stimulates the production of cytokines such as Interleukin-2 (IL-2). In humans, both T- and B-cells are probably stimulated. The activation of B-cells by PHA may be indirect and mediated by the release of soluble mediators from PHA-activated T-cells.
The lymphocyte blastogenesis test is a method to assess the ability of immunocompetent T- or B-cells to respond to a polyclonal mitogen (i.e. PHA or Con-A) or a specific antigen. It may be performed on lymphocytes obtained from mice treated with immunostimulators in vivo or the entire assay can be performed in vitro. The assay as described below uses minimal doses of polyclonal mitogens to induce blastogenesis (proliferation measure by DNA synthesis), in order to be able to assess the phenomena of amplification.
1. Sacrifice two mice/experimental group by cervical dislocation.
14. […]
15. Include in the experiment a control plate which contains the same cells group as above, but receive a 0.1 ml of media instead of mitogen.
18. After 48 hours all wells receive 0.025 mls of a 0.4 microcurie/ml solution of C-14 methyl thymidine and incubate at 37 C, 5% CO-2 for 18 hours.

[2] = test system: plaque forming cells, antibody specific to sheep red blood cells; assay: Jerne Hemolytic Plaque Assay; assay type: in vivo, mice
Procedure: This assay measures the IgM or IgG isotypes of specific antibody produced by antigen used to immunize the mice. […] The direct assay detects IgM and the indirect assay detects IgG-specific antibody.
Washed spleen cells are added to an agarose (FMC, Rockland, Me.) preparation containing sheep red blood cells (SRBC) and guinea pig complement. A drop of this mixture is transferred to a small petri dish; a cover slip is then placed over the drop to flatten it. The agarose prep is allowed to solidify. Then, the dishes are placed in a small humidified changer inside a CO-2 incubator overnight.
Small pinpoint cleared areas (plaques) will be observed under the cover slip. The cleared areas are caused by antibody, specific to the SRBC's being released by stimulated spleen cells and in conjunction with the complement, lyse surrounding SRBC's. These plaque forming cells (PFC's) are counted, and calculations are performed to obtain PFC's per […] spleen cells.
1. Spleens are harvested from mice according to a standard procedure and adjusted to a final concentration of 20% in […].
14. Count and record the number of hemolytic plaques per plate. Average plaque counts between the duplicate sets. Multiply the average number of plaques per group by 2.5 to obtain the number of plaque forming cells per million spleen cells.

Question: Which “CON-A 1.5 ug” value ([1]; 25 mg/kg (Table 9)) does the source give for CC(=O)CCC1(O)C(=O)OC2C(O)COC21O (stereo not shown) [KBBL, 2-(3-Ketobutyl)-2-Hydroxy-3-Keto-4-Dihydroxyethyl Butyrolactone <3, 6> Cyclohemiketal] here?
Answer: 3572

Question: And the “CON-A 2.25 ug” value ([1]; 25 mg/kg (Table 9))?
Answer: 5398

Question: What about the “PHA 10.5 ug” value ([1]; 25 mg/kg (Table 9)) of the same molecule?
Answer: 7935

Question: What about the “PHA 14 ug” value ([1]; 25 mg/kg (Table 9)) of the same molecule?
Answer: 10994

Question: And the “RPMI CONTROL” value ([1]; 25 mg/kg, no mitogen (Table 9))?
Answer: 255

Question: What about the “CON-A 1.5 ug” value ([1]; 50 mg/kg (Table 9)) of the same molecule?
Answer: 2539

Question: And the “CON-A 2.25 ug” value ([1]; 50 mg/kg (Table 9))?
Answer: 5802

Question: And the “PHA 10.5 ug” value ([1]; 50 mg/kg (Table 9))?
Answer: 4579

Question: And the “PHA 14 ug” value ([1]; 50 mg/kg (Table 9))?
Answer: 7295

Question: And the “RPMI CONTROL” value ([1]; 50 mg/kg, no mitogen (Table 9))?
Answer: 92

Question: What about the “CON-A 1.5 ug” value ([1]; 100 mg/kg (Table 9)) of the same molecule?
Answer: 1051

Question: And the “CON-A 2.25 ug” value ([1]; 100 mg/kg (Table 9))?
Answer: 3056

Question: What about the “PHA 10.5 ug” value ([1]; 100 mg/kg (Table 9)) of the same molecule?
Answer: 3540

Question: What about the “PHA 14 ug” value ([1]; 100 mg/kg (Table 9)) of the same molecule?
Answer: 4878

Question: What about the “RPMI CONTROL” value ([1]; 100 mg/kg, no mitogen (Table 9)) of the same molecule?
Answer: 33

Question: And the “CON-A 1.5 ug” value ([1]; 200 mg/kg (Table 9))?
Answer: 2571

Question: What about the “CON-A 2.25 ug” value ([1]; 200 mg/kg (Table 9)) of the same molecule?
Answer: 6891

Question: What about the “PHA 14 ug” value ([1]; 200 mg/kg (Table 9)) of the same molecule?
Answer: 6963

Question: What about the “RPMI CONTROL” value ([1]; 200 mg/kg, no mitogen (Table 9)) of the same molecule?
Answer: 55

Question: What about the activation at 25 mg/kg ([1]; 25 mg/kg (Table 9), read-out: % INCR. (CON-A 1.5 ug)) of the same molecule?
Answer: 663%

Question: What about the activation at 25 mg/kg ([1]; 25 mg/kg (Table 9), read-out: % INCR. (CON-A 2.25 ug)) of the same molecule?
Answer: 260%

Question: What about the activation at 25 mg/kg ([1]; 25 mg/kg (Table 9), read-out: % INCR. (PHA 10.5 ug)) of the same molecule?
Answer: 356%

Question: What about the activation at 25 mg/kg ([1]; 25 mg/kg (Table 9), read-out: % INCR. (PHA 14 ug)) of the same molecule?
Answer: 373%

Question: And the activation at 50 mg/kg ([1]; 50 mg/kg (Table 9), read-out: % INCR. (CON-A 1.5 ug))?
Answer: 443%

Question: And the activation at 50 mg/kg ([1]; 50 mg/kg (Table 9), read-out: % INCR. (CON-A 2.25 ug))?
Answer: 285%

Question: What about the activation at 50 mg/kg ([1]; 50 mg/kg (Table 9), read-out: % INCR. (PHA 10.5 ug)) of the same molecule?
Answer: 163%

Question: And the activation at 50 mg/kg ([1]; 50 mg/kg (Table 9), read-out: % INCR. (PHA 14 ug))?
Answer: 214%

Question: What about the activation at 100 mg/kg ([1]; 100 mg/kg (Table 9), read-out: % INCR. (CON-A 1.5 ug)) of the same molecule?
Answer: 54%

Question: And the activation at 100 mg/kg ([1]; 100 mg/kg (Table 9), read-out: % INCR. (CON-A 2.25 ug))?
Answer: 103%

Question: And the activation at 100 mg/kg ([1]; 100 mg/kg (Table 9), read-out: % INCR. (PHA 10.5 ug))?
Answer: 103%

Question: And the activation at 100 mg/kg ([1]; 100 mg/kg (Table 9), read-out: % INCR. (PHA 14 ug))?
Answer: 110%

Question: What about the activation at 200 mg/kg ([1]; 200 mg/kg (Table 9), read-out: % INCR. (CON-A 1.5 ug)) of the same molecule?
Answer: 449%

Question: And the activation at 200 mg/kg ([1]; 200 mg/kg (Table 9), read-out: % INCR. (CON-A 2.25 ug))?
Answer: 357%

Question: And the activation at 200 mg/kg ([1]; 200 mg/kg (Table 9), read-out: % INCR. (PHA 10.5 ug))?
Answer: 171%

Question: What about the activation at 200 mg/kg ([1]; 200 mg/kg (Table 9), read-out: % INCR. (PHA 14 ug)) of the same molecule?
Answer: 200%

Question: And the “stimulation at all doses” value ([1]; all doses of PHA and Con-A, 25-200 mg/kg)?
Answer: stimulatory at all the doses of PHA and Con-A tested

Question: What about the “% INCREASE” value ([2]; 50 mg/kg (Table 11)) of the same molecule?
Answer: 70.2%

Question: And the PFC ([2]; 50 mg/kg (Table 11))?
Answer: 36.0 PFC/1 MILLION CELLS

Question: And the “% INCREASE” value ([2]; 100 mg/kg (Table 11))?
Answer: 104.3%

Question: And the PFC ([2]; 100 mg/kg (Table 11))?
Answer: 48.0 PFC/1 MILLION CELLS

Question: What about the “% INCREASE” value ([2]; 200 mg/kg (Table 11)) of the same molecule?
Answer: 106.4%

Question: What about the PFC ([2]; 200 mg/kg (Table 11)) of the same molecule?
Answer: 48.5 PFC/1 MILLION CELLS

Question: O=C1CCCC(C2(O)C(=O)OC3C(O)COC32O)C1 (single isomer, unassigned) [KCBL-A] was tested. Which “CON-A 6 ug/ml” value ([1]; 12.5 mg/kg (Table 7)) did it give?
Answer: 3412.0 counts per minute

Question: And the “PHA 14 ug/ml” value ([1]; 12.5 mg/kg (Table 7))?
Answer: 1450.0 counts per minute

Question: And the “RPMI CONTROL” value ([1]; 12.5 mg/kg, no mitogen (Table 7))?
Answer: 94.0 counts per minute

Question: What about the “CON-A 6 ug/ml” value ([1]; 25.0 mg/kg (Table 7)) of the same molecule?
Answer: 5657.0 counts per minute

Question: And the “PHA 14 ug/ml” value ([1]; 25.0 mg/kg (Table 7))?
Answer: 2178.0 counts per minute

Question: And the “RPMI CONTROL” value ([1]; 25.0 mg/kg, no mitogen (Table 7))?
Answer: 77.0 counts per minute

Question: And the “CON-A 6 ug/ml” value ([1]; 50.0 mg/kg (Table 7))?
Answer: 5059.0 counts per minute

Question: And the “PHA 14 ug/ml” value ([1]; 50.0 mg/kg (Table 7))?
Answer: 2369.0 counts per minute

Question: What about the “RPMI CONTROL” value ([1]; 50.0 mg/kg, no mitogen (Table 7)) of the same molecule?
Answer: 50.0 counts per minute

Question: And the “CON-A 6 ug/ml” value ([1]; 100.0 mg/kg (Table 7))?
Answer: 4104.0 counts per minute

Question: And the “PHA 14 ug/ml” value ([1]; 100.0 mg/kg (Table 7))?
Answer: 2384.0 counts per minute

Question: What about the “RPMI CONTROL” value ([1]; 100.0 mg/kg, no mitogen (Table 7)) of the same molecule?
Answer: 76.0 counts per minute

Question: And the activation at 25 mg/kg ([1]; 25.0 mg/kg (Table 7), read-out: % INCREASE (CON-A 6 ug/ml))?
Answer: 56.6%

Question: What about the activation at 25 mg/kg ([1]; 25.0 mg/kg (Table 7), read-out: % INCREASE (PHA 14 ug/ml)) of the same molecule?
Answer: 26.1%

Question: What about the activation at 50 mg/kg ([1]; 50.0 mg/kg (Table 7), read-out: % INCREASE (CON-A 6 ug/ml)) of the same molecule?
Answer: 40%

Question: What about the activation at 50 mg/kg ([1]; 50.0 mg/kg (Table 7), read-out: % INCREASE (PHA 14 ug/ml)) of the same molecule?
Answer: 37.1%

Question: And the activation at 100 mg/kg ([1]; 100.0 mg/kg (Table 7), read-out: % INCREASE (CON-A 6 ug/ml))?
Answer: 13.6%

Question: What about the activation at 100 mg/kg ([1]; 100.0 mg/kg (Table 7), read-out: % INCREASE (PHA 14 ug/ml)) of the same molecule?
Answer: 38%

Question: And the “% INCREASE” value ([2]; 12.5 mg/ml (Table 10))?
Answer: 100%

Question: And the PFC ([2]; 12.5 mg/ml (Table 10))?
Answer: 112.00 PFC/1 MILLION CELLS

Question: What about the “% INCREASE” value ([2]; 25 mg/kg (Table 10)) of the same molecule?
Answer: 104%

Question: And the PFC ([2]; 25 mg/kg (Table 10))?
Answer: 115.00 PFC/1 MILLION CELLS

Question: What about the “% INCREASE” value ([2]; 50 mg/kg (Table 10)) of the same molecule?
Answer: 193%

Question: And the PFC ([2]; 50 mg/kg (Table 10))?
Answer: 165.00 PFC/1 MILLION CELLS

Question: What about the “% INCREASE” value ([2]; 100 mg/kg (Table 10)) of the same molecule?
Answer: 318%

Question: What about the PFC ([2]; 100 mg/kg (Table 10)) of the same molecule?
Answer: 235.00 PFC/1 MILLION CELLS

Question: What about the “% INCREASE” value ([2]; 200 mg/kg (Table 10)) of the same molecule?
Answer: 215%

Question: And the PFC ([2]; 200 mg/kg (Table 10))?
Answer: 177.50 PFC/1 MILLION CELLS
